Source: patent US8846741B2, “N-substituted aminobenzocycloheptene, aminotetraline, aminoindane and phenalkylamine derivatives, pharmaceutical compositions containing them, and their use in therapy” (AbbVie Deutschland GmbH & Co. KG, priority 2011, dated 2014)

What was measured:
human GlyT1c transporter = human GlyT1c transporter (Homo sapiens (Human), UniProt P48067); experiment: Radioligand binding assay using recombinant CHO cell membranes expressing human GlyT1; details: read-out: radioligand binding Kiapp
Procedure: 2. Radioligand Binding Assays Using Recombinant CHO Cell Membranes Expressing Human GlyT1:
Radioligand binding to human GlyT1c transporter-expressing membranes was determined as described in Mezler et al., Molecular Pharmacology 74:1705-1715, 2008.

MDR1 (P-gp) = MDR1 (P-gp) (Homo sapiens (Human), UniProt P08183); experiment: Efflux ratio in MDR1-MDCK bidirectional transport; type: in vitro ADME; details: dog; MDR1-MDCK cell monolayers, 1 μM in HBSS-pH 7.4, 1 h incubation at 37 C
Procedure: 3. Determination of Efflux Ratio Using Madin-Darby Canine Kidney Type II Cells
Bidirectional transport experiments were performed on Madin-Darby Canine Kidney Type II cells over-expressing multidrug resistance protein 1 (MDR1-MDCK) to evaluate the compounds as potential P-gp substrates.
Compounds were added at 1 μM in HBSS-pH 7.4 (hanks balanced salt solution) to either the apical or basolateral side of MDR1-MDCK cell monolayers grown on Millicell 96-Cell polycarbonate filters. Samples were collected from both apical and basolateral sides at time 0 and after 1 h incubation at 37 C, compounds concentrations were measured by HPLC/MS/MS and permeability coefficients were then determined in both transport directions. The efflux ratio was subsequently calculated from the permeability coefficient.

human GlyT1c transporter, sequence (P48067 whole entry): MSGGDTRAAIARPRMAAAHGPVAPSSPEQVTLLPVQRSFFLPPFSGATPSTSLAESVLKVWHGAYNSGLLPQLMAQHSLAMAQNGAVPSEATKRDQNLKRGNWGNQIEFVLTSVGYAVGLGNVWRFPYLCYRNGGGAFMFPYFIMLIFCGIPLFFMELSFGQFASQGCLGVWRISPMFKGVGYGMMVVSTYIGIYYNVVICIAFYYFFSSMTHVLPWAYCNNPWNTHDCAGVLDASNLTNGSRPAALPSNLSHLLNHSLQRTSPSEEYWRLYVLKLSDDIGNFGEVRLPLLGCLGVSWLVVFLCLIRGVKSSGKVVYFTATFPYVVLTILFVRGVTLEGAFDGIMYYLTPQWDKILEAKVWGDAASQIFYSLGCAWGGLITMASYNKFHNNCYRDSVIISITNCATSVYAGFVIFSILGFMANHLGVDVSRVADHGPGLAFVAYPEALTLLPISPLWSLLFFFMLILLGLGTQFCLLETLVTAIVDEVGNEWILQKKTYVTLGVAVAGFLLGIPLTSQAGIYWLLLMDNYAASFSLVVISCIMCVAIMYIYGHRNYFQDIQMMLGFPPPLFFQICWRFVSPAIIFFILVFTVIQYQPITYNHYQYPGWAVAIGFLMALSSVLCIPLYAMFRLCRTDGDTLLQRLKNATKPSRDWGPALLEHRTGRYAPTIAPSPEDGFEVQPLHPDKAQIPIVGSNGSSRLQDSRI
MDR1 (P-gp), sequence (P08183 whole entry, species assumed): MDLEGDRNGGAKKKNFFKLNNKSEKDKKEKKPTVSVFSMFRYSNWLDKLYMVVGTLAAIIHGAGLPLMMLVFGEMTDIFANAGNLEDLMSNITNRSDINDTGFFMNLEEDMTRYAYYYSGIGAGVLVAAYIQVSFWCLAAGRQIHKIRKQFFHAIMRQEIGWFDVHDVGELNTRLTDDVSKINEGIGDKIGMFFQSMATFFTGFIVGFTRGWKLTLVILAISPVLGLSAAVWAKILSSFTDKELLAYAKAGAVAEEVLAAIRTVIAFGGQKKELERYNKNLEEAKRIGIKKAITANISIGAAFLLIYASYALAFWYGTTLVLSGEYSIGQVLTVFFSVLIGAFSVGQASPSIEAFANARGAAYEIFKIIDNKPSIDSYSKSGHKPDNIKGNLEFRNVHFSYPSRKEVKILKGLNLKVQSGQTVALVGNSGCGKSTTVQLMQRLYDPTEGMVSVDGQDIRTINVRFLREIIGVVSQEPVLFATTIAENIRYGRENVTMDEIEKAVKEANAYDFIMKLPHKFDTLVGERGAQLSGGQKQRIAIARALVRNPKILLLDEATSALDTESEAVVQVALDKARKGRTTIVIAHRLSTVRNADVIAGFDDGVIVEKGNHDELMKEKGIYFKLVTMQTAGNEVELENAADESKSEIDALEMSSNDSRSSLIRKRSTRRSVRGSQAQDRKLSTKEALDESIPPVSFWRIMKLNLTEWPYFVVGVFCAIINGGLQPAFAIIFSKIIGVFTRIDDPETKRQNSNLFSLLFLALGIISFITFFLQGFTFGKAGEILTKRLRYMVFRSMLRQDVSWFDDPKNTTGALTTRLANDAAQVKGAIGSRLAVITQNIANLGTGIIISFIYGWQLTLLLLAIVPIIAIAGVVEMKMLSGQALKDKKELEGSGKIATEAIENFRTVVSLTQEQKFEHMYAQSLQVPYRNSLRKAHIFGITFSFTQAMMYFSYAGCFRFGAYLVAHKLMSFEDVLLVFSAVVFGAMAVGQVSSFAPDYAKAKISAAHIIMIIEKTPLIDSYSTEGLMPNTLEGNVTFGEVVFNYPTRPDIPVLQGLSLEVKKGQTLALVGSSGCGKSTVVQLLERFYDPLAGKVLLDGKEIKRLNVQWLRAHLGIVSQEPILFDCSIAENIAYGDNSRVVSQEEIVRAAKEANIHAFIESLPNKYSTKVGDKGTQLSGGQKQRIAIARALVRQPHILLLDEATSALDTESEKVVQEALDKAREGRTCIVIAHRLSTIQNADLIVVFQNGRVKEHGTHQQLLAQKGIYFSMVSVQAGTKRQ

For `Cn1cnc(S(=O)(=O)NCc2ccc3c(c2)C(Cc2ccccc2)C(N2CC4CC4C2)CC3)c1.O=C(O)/C=C/C(=O)O` (stereo not drawn) [Example 1, cis-N-({7-[3-Azabicyclo[3.1.0]hex-3-yl]-8-benzyl-5,6,7,8-tetrahydronaphthalen-2-yl}methyl)-1-methyl-1H-imidazole-4-sulfonamide(2E)-but-2-enedioate], the Ki (human GlyT1c transporter) was less than 10 nM and the efflux ratio at 1 h, 1 μM (MDR1 (P-gp)) was 3.2.

`Cn1cnc(S(=O)(=O)NCCOc2ccc3c(c2)C(Cc2ccccc2)C(N2CC4CC4C2)CC3)c1` (centres unmarked) [Example 2, N-[2-({7-[3-Azabicyclo[3.1.0]hex-3-yl]-8-benzyl-5,6,7,8-tetrahydronaphthalen-2-yl}oxy)ethyl]-1-methyl-1H-imidazole-4-sulfonamide(2E)-but-2-enedioate] was tested, and the Ki (human GlyT1c transporter) was less than 10 nM.

`Cn1cc(S(=O)(=O)NCCOc2ccc3c(c2)C(Cc2ccccc2)C(N2CC4CC4C2)CC3)cn1` (centres unmarked) [Example 3, N-[2-({7-[3-Azabicyclo[3.1.0]hex-3-yl]-8-benzyl-5,6,7,8-tetrahydronaphthalen-2-yl}oxy)ethyl]-1-methyl-1H-pyrazole-4-sulfonamide(2E)-but-2-enedioate] showed a Ki (human GlyT1c transporter) of less than 10 nM.

With `Cn1cnc(S(=O)(=O)NCCOc2ccc3c(c2)C(Cc2ccccc2F)C(N2CC4CC4C2)CC3)c1` (centres unmarked) [Example 5, N-(2-{[7-[3-Azabicyclo[3.1.0]hex-3-yl]-8-(2-fluorobenzyl)-5,6,7,8-tetrahydronaphthalen-2-yl]oxy}ethyl)-1-methyl-1H-imidazole-4-sulfonamide] the Ki (human GlyT1c transporter) was less than 1000 nM.

`CCS(=O)(=O)NCc1ccc2c(c1)C(Cc1ccccc1)C(NC1(C#N)COC1)CC2` (centres unmarked) [Example 6, N-((8-Benzyl-7-(3-cyanooxetan-3-ylamino)-5,6,7,8-tetrahydronaphthalen-2-yl)methyl)ethanesulfonamide] showed a Ki (human GlyT1c transporter) of less than 1000 nM.

In the case of `CCCS(=O)(=O)NCc1ccc2c(c1)C(Cc1ccccc1)C(NC1(C#N)COC1)CC2` (centres unmarked) [Example 7, N-((8-Benzyl-7-(3-cyanooxetan-3-ylamino)-5,6,7,8-tetrahydronaphthalen-2-yl)methyl)propane-1-sulfonamide], the Ki (human GlyT1c transporter) is reported as less than 1000 nM.

Molecule `N#CC1(NC2CCc3ccc(CNS(=O)(=O)C4CCC4)cc3C2Cc2ccccc2)COC1` (centres unmarked) [Example 8, N-((8-Benzyl-7-(3-cyanooxetan-3-ylamino)-5,6,7,8-tetrahydronaphthalen-2-yl)methyl)cyclobutanesulfonamide] has a Ki (human GlyT1c transporter) of less than 1000 nM.

Molecule `N#CC1(NC2CCc3ccc(CNS(=O)(=O)CC4CC4)cc3C2Cc2ccccc2)COC1` (centres unmarked) [Example 9, N-((8-Benzyl-7-(3-cyanooxetan-3-ylamino)-5,6,7,8-tetrahydronaphthalen-2-yl)methyl)-1-cyclopropylmethanesulfonamide] has a Ki (human GlyT1c transporter) of less than 100 nM and an efflux ratio at 1 h, 1 μM (MDR1 (P-gp)) of 3.5.

For `Cn1cnc(S(=O)(=O)NCCOc2cc3c(cc2C#N)CCC(N2CC4CC4C2)C3Cc2ccccc2)c1` (centres unmarked) [Example 10, N-[2-({7-[3-Azabicyclo[3.1.0]hex-3-yl]-8-benzyl-3-cyano-5,6,7,8-tetrahydronaphthalen-2-yl}oxy)ethyl]-1-methyl-1H-imidazole-4-sulfonamide(2E)-but-2-enedioate], the Ki (human GlyT1c transporter) was less than 1000 nM.
